Columns and labels:
[1] = test system: 240 cell lines with known alterations in the MAPK pathway; test: MEK inhibitor sensitivity in 240 cell lines (Cell Titer Glo, 5 days); type: cell-based; conditions: cell lines with KRAS, NRAS, BRAF Class I and III mutations, CRAF-alterations
Protocol: 240 cell lines representative of multiple cancer indications with known alterations in the MAPK pathway, including KRAS, NRAS, HRAS, NF1, EGFR, BRAF and CRAF mutations, were seeded overnight in […], then treated with a 9-point dose response of exemplary MEK inhibitors (starting dose of 100 nM and 3-fold dilution) for 5 days. Cell viability was determined using a Cell Titer Glo (CTG) assay. Percent inhibition was calculated for all compounds utilizing staurosporine (1000 nM) treatment as a measure of maximal inhibition. IC50 and area under the curve (AUC) values were determined by fitting a variable slope, four parameters curve to the compound concentration to percent inhibition relationship.

[2] = Cassette pharmacokinetics studies in mice; type: in vivo; conditions: male, Balb/c, plasma, Mouse
Summary of the method: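 Male Balb/c mice (3 per route) received cassette doses in 5% DMSO/95% PEG400 at 2 mg/kg IV (1 mg/kg where IV*) or 5 mg/kg PO. Plasma sampled to 24 h, acetonitrile-precipitated with internal standard, quantified by HPLC/MS/MS against 0.5-1,000 ng/mL standards.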

[3] = test system: ARAF in complex with MEK; test: ARAF-MEK stabilization in cells (MEK immunoprecipitation, Western); type: cell-based; conditions: HCT-116 and NCI-H1755 cells, 3 nM, 4 hours; stabilization = >1.5-fold over vehicle
Text: (§1) The stabilization of ARAF, BRAF and CRAF in complex with MEK in MEK immunoprecipitates isolated from cellular lysates. For these studies, HCT-116 (colorectal cell line with KRAS G13D mutation), SKMEL-2 (melanoma cell line with NRAS Q61K mutation), HT-29 (colorectal cell line with BRAF Class I mutation), NCI-H1755 (lung cancer cell line with BRAF Class II mutation), and NCI-H1666 (lung cancer cell line with BRAF Class III mutation) models are used. The tumor cell lines are maintained in vitro as monolayer culture in medium at 37° C. in an atmosphere of 5% CO2 in air. Cell lines are treated with exemplary MEK inhibitors at a concentration of 3 nM for 4 hours. Cells are lysed and MEK is immunoprecipitated from the lysates overnight. Denatured immunoprecipitates are run on SDS-PAGE, transferred to nitrocellulose membranes and associated ARAF, BRAF, or CRAF are detected by Western analysis. Stabilization was defined as >1.5-fold induction of RAF-MEK interaction over vehicle control.

[4] = test system: CRAF in complex with MEK; test: CRAF-MEK stabilization in cells (MEK immunoprecipitation, Western); type: cell-based; conditions: HCT-116 and NCI-H1666 cells, 3 nM, 4 hours
Text: as §1

AUC(0-inf) ([2]; IV, 2 mg/kg): 1950 ng·h/mL
AUC(0-t) ([2]; IV, 2 mg/kg): 1940 ng·h/mL
clearance ([2]; IV, 2 mg/kg): 17.2 mL/min/kg
half-life ([2]; IV, 2 mg/kg): 1.04 h
Vd ([2]; IV, 2 mg/kg, read-out: Vdss): 1.3 L/kg
AUC(0-inf) ([2]; PO, 5 mg/kg): 4040 ng·h/mL
AUC(0-t) ([2]; PO, 5 mg/kg): 3960 ng·h/mL
Cmax ([2]; PO, 5 mg/kg): 1660 ng/mL
Tmax ([2]; PO, 5 mg/kg): 0.5 h
half-life ([2]; PO, 5 mg/kg): 7.99 h
SMILES: CNS(=O)(=O)Nc1cccc(Oc2c(C(=O)NC3CC3)c(Nc3ccc(I)cc3F)n(C)c(=O)c2C)c1Cl [Compound I-2, 4-(2-chloro-3-((N-methylsulfamoyl)amino)phenoxy)-N-cyclopropyl-2-((2-fluoro-4-iodophenyl)amino)-1,5-dimethyl-6-oxo-1,6-dihydropyridine-3-carboxamide]
sensitivity compared to RAS/RAF wild-type cell lines [1]: increased sensitivity
association of ARAF with MEK [3]: enhanced
MEK inhibitor-induced MEK-CRAF stabilization [4]: stabilization was observed

Reference: patent publication US20230382863A1, “MEK INHIBITORS AND USES THEREOF” (Ikena Oncology, Inc., priority 2022, published 2023)
